Assays:
[1] = biological target: T1, α1β2γ2 GABA receptors (α1β2γ2-CHO-TRex stable cell strain) (Homo sapiens, UniProt P14867+P47870); assay: Whole-cell patch clamp, intrasynaptic functional activity (positive allosteric regulation of GABA-induced current); assay type: cell-based; conditions: patch clamp -60 mV, GABA at EC10-20, α1β2γ2-CHO-TRex cells
T1 construct: expressed in transfected cells
Experimental: (§1) The α4β3δ-HEK-FlpIn-TRex stable cell strain was cultured in DMEM+10% FBS complete culture medium, with the selective antibiotics being 10 μg/mL Blasticidin, 100 µg/mL Zeocin, 100 µg/mL Hygromycin, and 0.2 μg/mL Puromycin. The α1β2γ2-CHO-TRex stable cell strain was cultured in DMEM/F12+10% FBS complete culture medium, with the selective antibiotics being 10 μg/mL Blasticidin, 100 μg/mL Zeocin, 300 μg/mL Hygromycin, and […] Puromycin.
(§2) The day before the patch clamp experiment, cells were seeded onto 12 mm polylysine-coated coverslips and then cultured in 35 mm culture dishes, and tetracycline ([…]) was added to induce the expression of GABA receptors. The extracellular fluid had the following composition (in mM): 140 NaCl, 3 KCl, 1.5 MgCl2, 2 CaCl2, 10 HEPES, and 10 Glucose. After thorough mixing, NaOH was added to adjust the pH to 7.4, and sucrose was added to adjust the osmotic pressure to 300-320 mOsm. The fluid was stored at 4° C. The electrode internal solution had the following composition (in mM): 145 KCl, 1 MgCl2, 5 EGTA, 10 HEPES, and 5 MgATP. After thorough mixing, KOH was added to adjust the pH to 7.3, and sucrose was added to adjust the osmotic pressure to 290-300 mOsm. The solution was filtered through a […] before use.
(§3) Whole-cell patch clamp recording was mainly employed in this experiment. The membrane potential was clamped at −60 mV, and receptors were activated using GABA at an EC10-20 concentration ([…]). The test compounds were dissolved in 0.1% DMSO, and perfusion was performed for 30 s prior to GABA stimulation. Finally, the positive allosteric regulating effects of the test compounds on α1β2γ2 or α4β3δ were determined.
(§4) The experimental result for each concentration was expressed as a fold increase in the GABA-induced current caused by the compound. […] At least 5 concentrations are tested to obtain a complete EC50 curve and EC50 values. All experiments were repeated on no less than 3 cells, and data processing was completed using GraphPad prism software. The dose-response curves were fitted using the Hill equation, and the half-maximal activating concentration EC50 and Emax were finally obtained.

[2] = biological target: T2, α4β3δ GABA receptors (α4β3δ-HEK-FlpIn-TRex stable cell strain) (Homo sapiens, UniProt P28472+P48169); assay: Whole-cell patch clamp, extrasynaptic functional activity (positive allosteric regulation of GABA-induced current); assay type: cell-based; conditions: patch clamp -60 mV, GABA at EC10-20, α4β3δ-HEK-FlpIn-TRex cells
T2 construct: expressed in transfected cells
Experimental: as §1, §2, §3, §4

[3] = In vitro liver microsomal stability assay, rat; assay type: in vitro ADME; conditions: for Remaining amount % at 60 min: Rat liver microsomes 0.5 mg/mL, NADPH; for microsomal CLint at 1 µM: read-out: CLint(mic)
Experimental: (§5) 1) Preparation of working solutions of test samples: The test samples were diluted with acetonitrile to 100 M.
(§6) 2) Preparation of a working solution of liver microsomes: liver microsomes were diluted with 100 mM phosphate-buffered saline to 0.56 mg/mL.
(§7) 3) Preparation of a working solution of reduced nicotinamide adenine dinucleotide (NADPH): A proper amount of NADPH was weighed out and diluted with phosphate-buffered saline to 20 mM, and an equal volume of a 60 mM MgCl2 solution was added.
(§8) 4) Preparation of a stop solution: Tolbutamide was diluted with acetonitrile to 20 ng/mL, serving as a stop solution containing an internal standard.
(§9) 1) Incubation anti-adsorption EP tubes were prepared and labeled with species, test/control sample, time points (0, 5, 10, 20, 30, 60 min, Blank60, and NCF60), etc.
(§10) 2) 2 L of test or control sample working solution, diluted with acetonitrile to 100 M, and 178 L of liver microsome working solution were added to each tube. For the Blank60 tube, 2 L of acetonitrile was added instead of a test sample. The tubes were pre-incubated in a 37° C. water bath for about 10 min, with each sample tested in triplicate.
(§11) 3) After the pre-incubation was complete, 20 L of NADPH working solution was added to each tube except for the 0 min and NCF60 tubes to start reactions, and 20 L of phosphate-buffered saline (containing 30 mM MgCl2) was added to the NCF60 tube. In the incubation system, the final concentrations of the test and control samples were 1 M, the final concentration of liver microsomes was 0.5 mg/mL, the final concentration of NADPH was 1 mM, and the final concentration of MgCl2 was 3 mM.
(§12) 4) For the 0 min sample, 600 L of stop solution was added before adding the NADPH working solution. After each sample was incubated for its respective time, 600 L of stop solution was added to stop the reaction.
(§13) 5) After the reaction was stopped, each sample was vortexed for 30 s and then centrifuged at 13,500 rpm for 10 min. 100 L of the supernatant was transferred to an EP tube, and 100 L Milli-Q water was added. The mixture was well mixed by vortexing and analyzed by LC-MS/MS.
(§14) 6) Testosterone and dextromethorphan were used as positive control samples under the same conditions to assess the stability and reliability of the system.
(§15) Parameters of the test samples, including their half-lives, intrinsic clearance rates in liver microsomes, and hepatic intrinsic clearance rates, were calculated based on the percentage of test sample remaining.

[4] = In vitro liver microsomal stability assay, human; assay type: in vitro ADME; conditions: for CLint scaled at 1 µM / half-life at 1 µM / microsomal CLint at 1 µM / T1/2: Human liver microsomes; for Remaining amount % at 60 min: Human liver microsomes 0.5 mg/mL, NADPH; for microsomal CLint at 1 µM: read-out: CLint(mic)
Experimental: as §5, §6, §7, §8, §9, §10, §11, §12, §13, §14, §15

T2 sequence (P48169 36-554): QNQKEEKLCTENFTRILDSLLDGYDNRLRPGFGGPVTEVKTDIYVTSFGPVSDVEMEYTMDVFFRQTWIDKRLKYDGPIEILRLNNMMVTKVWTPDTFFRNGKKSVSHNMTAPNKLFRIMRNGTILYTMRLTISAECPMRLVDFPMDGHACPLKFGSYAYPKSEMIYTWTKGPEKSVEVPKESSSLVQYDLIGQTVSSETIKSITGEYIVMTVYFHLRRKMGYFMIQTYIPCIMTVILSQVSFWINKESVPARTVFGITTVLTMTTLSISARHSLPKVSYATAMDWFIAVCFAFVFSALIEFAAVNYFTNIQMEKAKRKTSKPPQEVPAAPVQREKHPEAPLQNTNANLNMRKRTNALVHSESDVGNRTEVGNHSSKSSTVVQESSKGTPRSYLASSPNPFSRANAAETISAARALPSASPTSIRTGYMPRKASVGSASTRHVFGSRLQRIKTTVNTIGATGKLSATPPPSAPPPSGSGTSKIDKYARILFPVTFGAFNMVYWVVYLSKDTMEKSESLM
T2 sequence (P28472 26-473): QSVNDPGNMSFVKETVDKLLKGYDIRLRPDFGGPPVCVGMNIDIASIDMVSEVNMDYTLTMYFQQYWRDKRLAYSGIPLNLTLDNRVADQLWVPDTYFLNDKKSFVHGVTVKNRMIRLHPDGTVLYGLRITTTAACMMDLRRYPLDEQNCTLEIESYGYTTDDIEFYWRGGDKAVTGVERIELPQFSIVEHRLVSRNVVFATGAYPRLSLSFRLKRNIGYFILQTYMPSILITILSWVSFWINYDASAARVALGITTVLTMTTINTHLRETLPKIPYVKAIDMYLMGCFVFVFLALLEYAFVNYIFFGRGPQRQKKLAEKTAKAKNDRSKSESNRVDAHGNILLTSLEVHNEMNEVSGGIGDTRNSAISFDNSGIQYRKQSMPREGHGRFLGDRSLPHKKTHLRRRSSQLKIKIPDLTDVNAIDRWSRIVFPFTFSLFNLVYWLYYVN
T2 sequence (O14764 25-452 partner): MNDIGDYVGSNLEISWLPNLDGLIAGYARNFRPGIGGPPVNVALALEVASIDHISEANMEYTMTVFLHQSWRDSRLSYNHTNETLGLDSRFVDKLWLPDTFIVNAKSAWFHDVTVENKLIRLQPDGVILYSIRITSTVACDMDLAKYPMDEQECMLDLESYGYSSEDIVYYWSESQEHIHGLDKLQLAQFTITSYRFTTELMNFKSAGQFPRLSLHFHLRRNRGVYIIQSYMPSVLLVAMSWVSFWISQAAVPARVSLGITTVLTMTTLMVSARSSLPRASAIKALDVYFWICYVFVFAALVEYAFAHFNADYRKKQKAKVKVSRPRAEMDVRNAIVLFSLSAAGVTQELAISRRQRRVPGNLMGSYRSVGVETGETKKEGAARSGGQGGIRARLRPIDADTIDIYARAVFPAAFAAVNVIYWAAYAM
T1 sequence (P14867 28-456): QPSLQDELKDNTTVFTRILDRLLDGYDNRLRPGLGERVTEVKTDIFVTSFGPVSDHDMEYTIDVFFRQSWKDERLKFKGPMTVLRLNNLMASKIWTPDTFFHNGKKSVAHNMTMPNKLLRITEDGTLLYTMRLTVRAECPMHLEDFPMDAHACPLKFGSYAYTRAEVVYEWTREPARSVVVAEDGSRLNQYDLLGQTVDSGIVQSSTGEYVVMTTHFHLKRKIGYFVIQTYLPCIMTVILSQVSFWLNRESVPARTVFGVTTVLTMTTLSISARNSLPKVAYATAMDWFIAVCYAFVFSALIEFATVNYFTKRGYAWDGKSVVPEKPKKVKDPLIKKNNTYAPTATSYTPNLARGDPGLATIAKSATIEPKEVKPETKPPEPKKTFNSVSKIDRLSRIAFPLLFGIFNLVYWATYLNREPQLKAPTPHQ
T1 sequence (P47870 25-512 limits assumed): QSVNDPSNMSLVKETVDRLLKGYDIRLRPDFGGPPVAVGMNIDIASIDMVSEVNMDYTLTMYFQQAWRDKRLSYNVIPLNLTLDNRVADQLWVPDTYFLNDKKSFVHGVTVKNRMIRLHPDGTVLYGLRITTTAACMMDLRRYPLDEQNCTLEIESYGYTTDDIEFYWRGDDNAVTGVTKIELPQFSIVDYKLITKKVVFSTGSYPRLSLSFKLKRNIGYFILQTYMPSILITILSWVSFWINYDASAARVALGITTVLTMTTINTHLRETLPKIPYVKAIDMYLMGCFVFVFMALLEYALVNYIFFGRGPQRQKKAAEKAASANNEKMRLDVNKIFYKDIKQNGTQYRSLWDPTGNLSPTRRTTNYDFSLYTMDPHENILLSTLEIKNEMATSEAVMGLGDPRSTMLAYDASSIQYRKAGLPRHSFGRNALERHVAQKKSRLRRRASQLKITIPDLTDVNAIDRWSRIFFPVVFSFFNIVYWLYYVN
T1 sequence (P18507 40-475 partner): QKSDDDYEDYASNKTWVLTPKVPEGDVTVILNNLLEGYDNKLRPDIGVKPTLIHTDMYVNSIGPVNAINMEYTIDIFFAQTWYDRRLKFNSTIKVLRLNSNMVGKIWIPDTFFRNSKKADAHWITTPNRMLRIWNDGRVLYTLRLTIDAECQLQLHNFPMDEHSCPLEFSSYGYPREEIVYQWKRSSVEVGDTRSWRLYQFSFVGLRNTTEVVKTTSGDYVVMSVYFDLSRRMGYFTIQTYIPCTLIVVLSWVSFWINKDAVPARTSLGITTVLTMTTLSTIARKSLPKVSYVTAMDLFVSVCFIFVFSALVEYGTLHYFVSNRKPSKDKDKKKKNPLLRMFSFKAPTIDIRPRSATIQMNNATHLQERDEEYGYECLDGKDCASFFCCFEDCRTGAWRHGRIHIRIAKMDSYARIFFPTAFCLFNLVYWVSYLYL

## COCCn1ncn(CC(=O)[C@H]2CC[C@H]3[C@@H]4CC[C@@H]5C[C@](C)(O)CC[C@@H]5[C@H]4CC[C@]23C)c1=O [Compound 31]
[1]
  Emax: 735%
[2]
  Emax: 609%
[3]; Rat liver microsomes
  CLint scaled at 1 µM: 234 mL/min/kg
  half-life at 1 µM: 10.7 min
  microsomal CLint at 1 µM: 130 µL/min/mg
[3]
  Remaining amount % at 60 min: 2.1%
[4]
  CLint scaled at 1 µM: 37 mL/min/kg
  half-life at 1 µM: 34.1 min
  Remaining amount % at 60 min: 28.5%
  microsomal CLint at 1 µM: 41 µL/min/mg

## C[C@@]1(O)CC[C@H]2[C@H](CC[C@@H]3[C@@H]2CC[C@]2(C)[C@@H](C(=O)Cn4cnn(-c5nccs5)c4=O)CC[C@@H]32)C1 [Compound 32]
[1]
  EC50: 330 nM
  Emax: 763%
[2]
  EC50: 126 nM
  Emax: 633%
[3]; Rat liver microsomes
  CLint scaled at 1 µM: 152 mL/min/kg
  half-life at 1 µM: 15.4 min
  microsomal CLint at 1 µM: 85 µL/min/mg
[3]
  Remaining amount % at 60 min: 7.7%
[4]
  CLint scaled at 1 µM: 19 mL/min/kg
  half-life at 1 µM: 64.8 min
  Remaining amount % at 60 min: 66.8%
  microsomal CLint at 1 µM: 21 µL/min/mg

## C[C@@]1(O)CC[C@@]2(C)[C@@H](CC[C@@H]3[C@@H]2CC[C@]2(C)[C@@H](C(=O)Cn4cnn(-c5cccc(F)c5)c4=O)CC[C@@H]32)C1 [Compound 33]
[1]
  EC50: 598 nM
  Emax: 495%
[2]
  EC50: 96 nM
  Emax: 936%
[3]; Rat liver microsomes
  CLint scaled at 1 µM: 29 mL/min/kg
  half-life at 1 µM: 85.6 min
  microsomal CLint at 1 µM: 16 µL/min/mg
[3]
  Remaining amount % at 60 min: 62.2%
[4]
  CLint scaled at 1 µM: < 6.7 mL/min/kg
  half-life at 1 µM: > 186 min
  Remaining amount % at 60 min: 85.8%
  microsomal CLint at 1 µM: < 7.5 µL/min/mg

## C[C@@]1(O)CC[C@H]2[C@H](CC[C@@H]3[C@@H]2CC[C@]2(C)[C@@H](C(=O)Cn4cnn(-c5cccc(C#N)c5)c4=O)CC[C@@H]32)C1 [Compound 34]
[1]
  EC50: 112 nM
[2]
  EC50: 50 nM
  Emax: 683%
[3]; Rat liver microsomes
  CLint scaled at 1 µM: 98 mL/min/kg
  half-life at 1 µM: 25.6 min
  microsomal CLint at 1 µM: 54 µL/min/mg
[3]
  Remaining amount % at 60 min: 20.5%
[4]
  CLint scaled at 1 µM: 7 mL/min/kg
  half-life at 1 µM: 178 min
  Remaining amount % at 60 min: 79.9%
  microsomal CLint at 1 µM: 8 µL/min/mg

## Cc1cc(-n2ncn(CC(=O)[C@H]3CC[C@H]4[C@@H]5CC[C@@H]6C[C@](C)(O)CC[C@@H]6[C@H]5CC[C@]34C)c2=O)ccn1 [Compound 36]
[1]
  EC50: 119 nM
  Emax: 871%
[2]
  EC50: 99 nM
  Emax: 745%
[3]; Rat liver microsomes
  CLint scaled at 1 µM: 125 mL/min/kg
  half-life at 1 µM: 29 min
  microsomal CLint at 1 µM: 69 µL/min/mg
[3]
  Remaining amount % at 60 min: 12.2%
[4]
  CLint scaled at 1 µM: 53 mL/min/kg
  half-life at 1 µM: 23 min
  Remaining amount % at 60 min: 15.9%
  microsomal CLint at 1 µM: 59 µL/min/mg

## C[C@@]1(O)CC[C@H]2[C@H](CC[C@@H]3[C@@H]2CC[C@]2(C)[C@@H](C(=O)Cn4cnn(-c5ccnc(OC(F)(F)F)c5)c4=O)CC[C@@H]32)C1 [Compound 38]
[1]
  EC50: 55 nM
  Emax: 700%
[2]
  EC50: 115 nM
  Emax: 625%
[3]; Rat liver microsomes
  CLint scaled at 1 µM: 12 mL/min/kg
  half-life at 1 µM: 210 min
  microsomal CLint at 1 µM: 7 µL/min/mg
[3]
  Remaining amount % at 60 min: 82.9%
[4]
  CLint scaled at 1 µM: < 6.75 mL/min/kg
  half-life at 1 µM: > 186 min
  Remaining amount % at 60 min: 97.3%
  microsomal CLint at 1 µM: < 7.5 µL/min/mg

## C[C@@]1(O)CC[C@H]2[C@H](CC[C@@H]3[C@@H]2CC[C@]2(C)[C@@H](C(=O)Cn4cnn(-c5ccnc(OCC(F)(F)F)c5)c4=O)CC[C@@H]32)C1 [Compound 39]
[1]
  Emax: 675%
[2]
  Emax: 967%
[3]; Rat liver microsomes
  CLint scaled at 1 µM: < 13.5 mL/min/kg
  half-life at 1 µM: > 186 min
  microsomal CLint at 1 µM: < 7.5 µL/min/mg
[3]
  Remaining amount % at 60 min: 90.6%
[4]
  CLint scaled at 1 µM: 8 mL/min/kg
  T1/2: 154 min
  Remaining amount % at 60 min: 76.2%
  microsomal CLint at 1 µM: 9 µL/min/mg

## C[C@@]1(O)CC[C@H]2[C@H](CC[C@@H]3[C@@H]2CC[C@]2(C)[C@@H](C(=O)Cn4cnn(CCOC(F)(F)F)c4=O)CC[C@@H]32)C1 [Compound 43]
[1]
  Emax: 576%
[2]
  Emax: 889%
[3]; Rat liver microsomes
  CLint scaled at 1 µM: 108 mL/min/kg
  T1/2: 23 min
  microsomal CLint at 1 µM: 60 µL/min/mg
[3]
  Remaining amount % at 60 min: 15.74%
[4]
  CLint scaled at 1 µM: 41 mL/min/kg
  T1/2: 30.7 min
  Remaining amount % at 60 min: 25.97%
  microsomal CLint at 1 µM: 45 µL/min/mg

## C[C@@]1(O)CC[C@H]2[C@H](CC[C@@H]3[C@@H]2CC[C@]2(C)[C@@H](C(=O)Cn4cnn(-c5cc(F)cc(C#N)c5)c4=O)CC[C@@H]32)C1 [Compound 44]
[1]
  Emax: 518%
[2]
  Emax: 546%
[3]; Rat liver microsomes
  CLint scaled at 1 µM: 27 mL/min/kg
  half-life at 1 µM: 93.6 min
  microsomal CLint at 1 µM: 15 µL/min/mg
[3]
  Remaining amount % at 60 min: 64.82%
[4]
  CLint scaled at 1 µM: 12 mL/min/kg
  half-life at 1 µM: 102 min
  Remaining amount % at 60 min: 66.67%
  microsomal CLint at 1 µM: 14 µL/min/mg

## CC(C)(C)n1ncn(CC(=O)[C@H]2CC[C@H]3[C@@H]4CC[C@@H]5C[C@](C)(O)CC[C@@H]5[C@H]4CC[C@]23C)c1=O [Compound 45]
[1]
  EC50: 121 nM
  Emax: 806%
[2]
  EC50: 113 nM
  Emax: 749%
[3]; Rat liver microsomes
  CLint scaled at 1 µM: 281 mL/min/kg
  half-life at 1 µM: 8.9 min
  microsomal CLint at 1 µM: 156 µL/min/mg
[3]
  Remaining amount % at 60 min: 7.24%
[4]
  CLint scaled at 1 µM: 22 mL/min/kg
  half-life at 1 µM: 56.3 min
  Remaining amount % at 60 min: 48.81%
  microsomal CLint at 1 µM: 25 µL/min/mg

From US20250368678A1, “19-NOR-C3,3-DISUBSTITUTED C21-AZACYCLO-S[…] AND METHOD FOR USING SAME” (SHANDONG LUYE PHARMACEUTICAL CO., LTD., priority 2022, published 2025)
